≈ marks a conversion by molar mass, not a printed value.
Legend:
Staph. albus SS 03 = format: cell-based; conditions: Brain Heart Infusion, estolate and RV11-RV15 previously hydrolized, unit assumed
Staph. albus SS 04 = format: cell-based; conditions: Brain Heart Infusion, estolate and RV11-RV15 previously hydrolized, unit assumed
Staph. aureus SS 07 [1] = format: cell-based; conditions: Brain Heart Infusion, estolate and RV11-RV15 previously hydrolized, unit assumed
Staph. aureus SS 08 = format: cell-based; conditions: Brain Heart Infusion, estolate and RV11-RV15 previously hydrolized, unit assumed
Staph. aureus SS 09 = format: cell-based; conditions: Brain Heart Infusion, estolate and RV11-RV15 previously hydrolized, unit assumed
Staph. aureus SS 10 = format: cell-based; conditions: Brain Heart Infusion, estolate and RV11-RV15 previously hydrolized, unit assumed
[2] = test system: Strept. haemolyticus SS 17; format: cell-based; conditions: Brain Heart Infusion, estolate and RV11-RV15 previously hydrolized, unit assumed
[3] = test system: Strept. haemolyticus SS 18; format: cell-based; conditions: Brain Heart Infusion, estolate and RV11-RV15 previously hydrolized, unit assumed
Strept. faecalis SS 19 = format: cell-based; conditions: Brain Heart Infusion, estolate and RV11-RV15 previously hydrolized, unit assumed
B. subtilis ATCC 6633 = format: cell-based; conditions: Brain Heart Infusion, estolate and RV11-RV15 previously hydrolized, unit assumed
B. cereus ATCC 11778 = format: cell-based; conditions: Brain Heart Infusion, estolate and RV11-RV15 previously hydrolized, unit assumed
B. anthranis SS 08 = format: cell-based; conditions: Brain Heart Infusion, estolate and RV11-RV15 previously hydrolized, unit assumed
Br. melitensis SS 19 = format: cell-based; conditions: unit assumed
Citrobacter SS 05 = format: cell-based; conditions: Brain Heart Infusion, estolate and RV11-RV15 previously hydrolized, unit assumed
Citrobacter SS 09 = format: cell-based; conditions: Brain Heart Infusion, estolate and RV11-RV15 previously hydrolized, unit assumed
S. infantis SS 08 = format: cell-based; conditions: Brain Heart Infusion, estolate and RV11-RV15 previously hydrolized, unit assumed
S. heidelberg SS 18 = format: cell-based; conditions: Brain Heart Infusion, estolate and RV11-RV15 previously hydrolized, unit assumed
E. cloacae SS 07 = format: cell-based; conditions: Brain Heart Infusion, estolate and RV11-RV15 previously hydrolized, unit assumed
E. aerogenes SS 011 = format: cell-based; conditions: Brain Heart Infusion, estolate and RV11-RV15 previously hydrolized, unit assumed
Ps. aeruginosa SS 10 = format: cell-based; conditions: Brain Heart Infusion, estolate and RV11-RV15 previously hydrolized, unit assumed
E. coli SS 04 = format: cell-based; conditions: Brain Heart Infusion, estolate and RV11-RV15 previously hydrolized, unit assumed
E. coli SS 06 = format: cell-based; conditions: Brain Heart Infusion, estolate and RV11-RV15 previously hydrolized, unit assumed
E. coli SS 07 = format: cell-based; conditions: Brain Heart Infusion, estolate and RV11-RV15 previously hydrolized, unit assumed
Pr. mirabilis SS 09 = format: cell-based; conditions: Brain Heart Infusion, estolate and RV11-RV15 previously hydrolized, unit assumed
Pr. vulgaris SS 10 = format: cell-based; conditions: Brain Heart Infusion, estolate and RV11-RV15 previously hydrolized, unit assumed
Kl. aerogenes SS 71 = format: cell-based; conditions: Brain Heart Infusion, estolate and RV11-RV15 previously hydrolized, unit assumed
H. tubercolosis SS 03 = format: cell-based; conditions: Brain Heart Infusion, estolate and RV11-RV15 previously hydrolized, unit assumed
From the text: (§1) In the following table I the MIC/ml values are indicated corresponding to the lowest concentration capable of inducing a complete inhibition of the bacterial development.

Kl. pneumoniae SS 04 = format: cell-based; conditions: Brain Heart Infusion, estolate and RV11-RV15 previously hydrolized, unit assumed
From the text: as §1

Sr. marcescens SS 03 = format: cell-based; conditions: Brain Heart Infusion, estolate and RV11-RV15 previously hydrolized, unit assumed
C. diphtheriae SS 19 = format: cell-based; conditions: Brain Heart Infusion, estolate and RV11-RV15 previously hydrolized, unit assumed
D. pneumoniae SS 23 [4] = format: cell-based; conditions: Brain Heart Infusion, estolate and RV11-RV15 previously hydrolized, unit assumed
N. gonorreae SS 27 = format: cell-based; conditions: Brain Heart Infusion, estolate and RV11-RV15 previously hydrolized, unit assumed
N. meningitidis SS 04 = format: cell-based; conditions: Brain Heart Infusion, estolate and RV11-RV15 previously hydrolized, unit assumed
H. influentiae SS 02 = format: cell-based; conditions: Brain Heart Infusion, estolate and RV11-RV15 previously hydrolized, unit assumed
H. pertussis SS 03 = format: cell-based; conditions: Brain Heart Infusion, estolate and RV11-RV15 previously hydrolized, unit assumed
C. albicans SS 04 = format: cell-based; conditions: Brain Heart Infusion, estolate and RV11-RV15 previously hydrolized, unit assumed
Cl. tetani SS 17 = format: cell-based; conditions: Brain Heart Infusion, estolate and RV11-RV15 previously hydrolized, unit assumed
B. anthranis SS 09 = format: cell-based; conditions: B. anthranis SS 09 (14 bis); Brain Heart Infusion; estolate and RV11-RV15 previously hydrolized; unit assumed
Acute toxicity = format: in vivo; conditions: mouse, in vivo, po, 14400 min
Procedure: The acute toxicity was assessed in Swiss white mice by oral and intravenous route. The LD50 values have been calculated by the methods of Probits, starting from the mortality recorded 10 days after the treatment.

Staph. aureus SS 07 [5] = assay: Experimental infection induced by Staph. aureus SS 07; format: in vivo, Swiss white mice; conditions: os; Staph. aureus SS 07; mg/kg of erythromycin; survival after 7 days; 10080 min
In short: (§2)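 Swiss mice of 20 g infected parenterally with lethal amounts of Staph. aureus SS 07 or D. pneumoniae SS 23. Antibiotics were given at infection and again 6 and 24 h later. ED50 was derived from survival at 7 days.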

D. pneumoniae SS 23 [6] = assay: Experimental infection induced by D. pneumoniae SS 23; format: in vivo, Swiss white mice; conditions: os; D. pneumoniae SS 23; mg/kg of erythromycin; survival after 7 days; 10080 min
In short: as §2

[7] = Mucolytic activity: obstruction of the bronchial tract after SO2 inhalation; format: in vivo, Sprague Dawley male rats; conditions: oral, 500 mg/kg; SO2, 15 days

CCC(=O)O[C@H]1[C@H](O[C@@H]2[C@@H](C)[C@H](O[C@H]3C[C@@](C)(OC)[C@@H](O)[C@H](C)O3)[C@@H](C)C(=O)O[C@H](CC)[C@@](C)(O)[C@H](O)[C@@H](C)C(=O)[C@H](C)C[C@@]2(C)O)O[C@H](C)C[C@@H]1N(C)C [RV13, erythromycin-monopropionate-thiazolidin-carboxylate]
MIC (Staph. albus SS 03): 0.05 µg/mL (≈ 0.0633 µM)
MIC (Staph. albus SS 04): 0.025 µg/mL (≈ 0.0316 µM)
MIC (Staph. aureus SS 07 [1]): 0.025 µg/mL (≈ 0.0316 µM)
MIC (Staph. aureus SS 08): 0.05 µg/mL (≈ 0.0633 µM)
MIC (Staph. aureus SS 09): 0.1 µg/mL (≈ 0.127 µM)
MIC (Staph. aureus SS 10): 0.1 µg/mL (≈ 0.127 µM)
MIC [2]: 1.5 µg/mL (≈ 1.9 µM)
MIC [3]: 1.5 µg/mL (≈ 1.9 µM)
MIC (Strept. faecalis SS 19): 0.05 µg/mL (≈ 0.0633 µM)
MIC (B. subtilis ATCC 6633): 0.025 µg/mL (≈ 0.0316 µM)
MIC (B. cereus ATCC 11778): 0.8 µg/mL (≈ 1.01 µM)
MIC (B. anthranis SS 08): 0.4 µg/mL (≈ 0.506 µM)
MIC (Br. melitensis SS 19): 3 µg/mL (≈ 3.8 µM)
MIC (Citrobacter SS 05): > 200 µg/mL
MIC (Citrobacter SS 09): > 200 µg/mL
MIC (S. infantis SS 08): 100 µg/mL (≈ 127 µM)
MIC (S. heidelberg SS 18): 100 µg/mL (≈ 127 µM)
MIC (E. cloacae SS 07): > 200 µg/mL
MIC (E. aerogenes SS 011): 50 µg/mL (≈ 63.3 µM)
MIC (Ps. aeruginosa SS 10): 100 µg/mL (≈ 127 µM)
MIC (E. coli SS 04): 100 µg/mL (≈ 127 µM)
MIC (E. coli SS 06): 50 µg/mL (≈ 63.3 µM)
MIC (E. coli SS 07): 50 µg/mL (≈ 63.3 µM)
MIC (Pr. mirabilis SS 09): > 200 µg/mL
MIC (Pr. vulgaris SS 10): > 200 µg/mL
MIC (Kl. aerogenes SS 71): 100 µg/mL (≈ 127 µM)
MIC (H. tubercolosis SS 03): 50 µg/mL (≈ 63.3 µM)
MIC (Kl. pneumoniae SS 04): 100 µg/mL (≈ 127 µM)
MIC (Sr. marcescens SS 03): 100 µg/mL (≈ 127 µM)
MIC (C. diphtheriae SS 19): 0.01 µg/mL (≈ 0.0127 µM)
MIC (D. pneumoniae SS 23 [4]): 0.025 µg/mL (≈ 0.0316 µM)
MIC (N. gonorreae SS 27): 0.8 µg/mL (≈ 1.01 µM)
MIC (N. meningitidis SS 04): 0.8 µg/mL (≈ 1.01 µM)
MIC (H. influentiae SS 02): 1.5 µg/mL (≈ 1.9 µM)
MIC (H. pertussis SS 03): 0.2 µg/mL (≈ 0.253 µM)
MIC (C. albicans SS 04): 100 µg/mL (≈ 127 µM)
MIC (Cl. tetani SS 17): 0.2 µg/mL (≈ 0.253 µM)
MIC (B. anthranis SS 09): 0.4 µg/mL (≈ 0.506 µM)
LD50 (reliability limits) (Acute toxicity): 3000 mg·kg
ED50 (reliability limits) (Staph. aureus SS 07 [5]): 2.20 (2.44-1.99) mg/kg
ED50 (reliability limits) (D. pneumoniae SS 23 [6]): 113.88 (144.73-89.60) mg/kg
Partial obstruction (% incidence) [7]: 20%
Total obstruction, compact plug (% incidence) [7]: 20%
Total obstruction, nodular mass (% incidence) [7]: 6.66%
Total obstruction, pimply mass (% incidence) [7]: 13.33%

CCC(=O)O[C@H]1[C@H](O[C@@H]2[C@@H](C)[C@H](O[C@H]3C[C@@](C)(OC)[C@@H](O)[C@H](C)O3)[C@@H](C)C(=O)O[C@H](CC)[C@@](C)(O)[C@H](O)[C@@H](C)C(=O)[C@H](C)C[C@@]2(C)O)O[C@H](C)C[C@@H]1N(C)C [RV15, erythromycin monopropionate N-acetylcysteinate]
MIC (Staph. albus SS 03): 0.25 µg/mL (≈ 0.316 µM)
MIC (Staph. albus SS 04): 0.05 µg/mL (≈ 0.0633 µM)
MIC (Staph. aureus SS 07 [1]): 0.025 µg/mL (≈ 0.0316 µM)
MIC (Staph. aureus SS 08): 0.025 µg/mL (≈ 0.0316 µM)
MIC (Staph. aureus SS 09): 0.05 µg/mL (≈ 0.0633 µM)
MIC (Staph. aureus SS 10): 0.05 µg/mL (≈ 0.0633 µM)
MIC [2]: 1.5 µg/mL (≈ 1.9 µM)
MIC [3]: 3 µg/mL (≈ 3.8 µM)
MIC (Strept. faecalis SS 19): 0.05 µg/mL (≈ 0.0633 µM)
MIC (B. subtilis ATCC 6633): 0.01 µg/mL (≈ 0.0127 µM)
MIC (B. cereus ATCC 11778): 0.4 µg/mL (≈ 0.506 µM)
MIC (B. anthranis SS 08): 0.4 µg/mL (≈ 0.506 µM)
MIC (Br. melitensis SS 19): 3 µg/mL (≈ 3.8 µM)
MIC (Citrobacter SS 05): > 200 µg/mL
MIC (Citrobacter SS 09): > 200 µg/mL
MIC (S. infantis SS 08): 100 µg/mL (≈ 127 µM)
MIC (S. heidelberg SS 18): 100 µg/mL (≈ 127 µM)
MIC (E. cloacae SS 07): > 200 µg/mL
MIC (E. aerogenes SS 011): 50 µg/mL (≈ 63.3 µM)
MIC (Ps. aeruginosa SS 10): 100 µg/mL (≈ 127 µM)
MIC (E. coli SS 04): 50 µg/mL (≈ 63.3 µM)
MIC (E. coli SS 06): 25 µg/mL (≈ 31.6 µM)
MIC (E. coli SS 07): 50 µg/mL (≈ 63.3 µM)
MIC (Pr. mirabilis SS 09): > 200 µg/mL
MIC (Pr. vulgaris SS 10): > 200 µg/mL
MIC (Kl. aerogenes SS 71): 100 µg/mL (≈ 127 µM)
MIC (H. tubercolosis SS 03): 50 µg/mL (≈ 63.3 µM)
MIC (Kl. pneumoniae SS 04): 100 µg/mL (≈ 127 µM)
MIC (Sr. marcescens SS 03): 200 µg/mL (≈ 253 µM)
MIC (C. diphtheriae SS 19): 0.02 µg/mL (≈ 0.0253 µM)
MIC (D. pneumoniae SS 23 [4]): 0.05 µg/mL (≈ 0.0633 µM)
MIC (N. gonorreae SS 27): 0.8 µg/mL (≈ 1.01 µM)
MIC (N. meningitidis SS 04): 0.8 µg/mL (≈ 1.01 µM)
MIC (H. influentiae SS 02): 1.5 µg/mL (≈ 1.9 µM)
MIC (H. pertussis SS 03): 0.2 µg/mL (≈ 0.253 µM)
MIC (C. albicans SS 04): 200 µg/mL (≈ 253 µM)
MIC (Cl. tetani SS 17): 0.2 µg/mL (≈ 0.253 µM)
MIC (B. anthranis SS 09): 0.4 µg/mL (≈ 0.506 µM)
LD50 (reliability limits) (Acute toxicity): 3000 mg·kg
ED50 (reliability limits) (Staph. aureus SS 07 [5]): 2.10 (2.49-1.92) mg/kg
ED50 (reliability limits) (D. pneumoniae SS 23 [6]): 110.90 (135.28-90.92) mg/kg
Partial obstruction (% incidence) [7]: 6.66%
Total obstruction, compact plug (% incidence) [7]: 20%
Total obstruction, nodular mass (% incidence) [7]: 13.33%
Total obstruction, pimply mass (% incidence) [7]: 6.66%
